Each molecule was assayed against T1, KRas G12C (Homo sapiens, UniProt P01116, G12C) (assay: Inhibition of KRas G12C-dependent cell growth: Phospho-ERK in NCI-H358 cells). Settings: NCI-H358 cells expressing KRas G12C; Phospho-ERK (Thr202/Tyr204) normalized to GAPDH; 3 hours compound; 4 parameter fit.
T1 construct: NCI-H358 cells (ATCC CRL-5807) express KRas G12C
Assay type: cell-based
Outline: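 NCI-H358 cells (KRas G12C) exposed to compounds for 3 h, 0.5% DMSO final. Fixed cells immunostained for pERK(Thr202/Tyr204) and GAPDH with infrared secondary antibodies. pERK normalized to GAPDH, expressed as percent of DMSO control; IC50 from 4-parameter dose-response fit.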

T1 sequence (P01116 1-188 isoform P01116-2 G12C): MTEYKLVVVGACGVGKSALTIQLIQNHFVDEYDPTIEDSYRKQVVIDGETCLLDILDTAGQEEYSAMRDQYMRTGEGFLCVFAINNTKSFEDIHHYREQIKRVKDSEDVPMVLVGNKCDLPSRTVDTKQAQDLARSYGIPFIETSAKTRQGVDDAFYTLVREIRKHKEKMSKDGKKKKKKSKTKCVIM

SMILES	IC50 [µM]
C=CC(=O)N1CC[C@@H]2[C@H]1CN2c1nc(OC[C@@H]2[C@H]3C[C@H]3CN2C)nc2c(F)c(-c3cccc4ccc(F)c(Cl)c34)ncc12 [Example 253]	0.035
C=CC(=O)N1CC[C@@H]2[C@H]1CN2c1ncnc2cc(-c3cccc4ccc(F)c(Cl)c34)ncc12 [Example 254]	2.16
C=CC(=O)N1CCN(c2ncnc3c(F)c(-c4cccc5cc(F)ccc45)ncc23)CC1 [Example 258]	10
COC/C=C/C(=O)N1CC[C@@H]2[C@H]1CN2c1ncnc2c(F)c(-c3cccc4ccc(F)c(Cl)c34)ncc12 [Example 259]	9
C=CC(=O)N1CC[C@@H]2[C@H]1CN2c1nc(OC2COC2)nc2c(F)c(-c3cccc4ccc(F)c(Cl)c34)ncc12 [Example 265]	1.49
C=CC(=O)N1CC[C@@H]2[C@H]1CN2c1ncnc2c(F)c(-c3cccc4cc(OC)ccc34)ncc12 [Example 266]	10
C=CC(=O)N1CC[C@@H]2[C@H]1CN2c1nc(N(C)C)nc2c(F)c(-c3cccc4ccc(F)c(Cl)c34)ncc12 [Example 269]	4.49
C=CC(=O)N1CC[C@@H]2[C@H]1CN2c1nc(OC2CC2)nc2c(F)c(-c3cccc4ccc(F)c(Cl)c34)ncc12 [Example 272]	1.47
C=CC(=O)N1CC[C@@H]2[C@H]1CN2c1nc(N2CC(N(C)C)C2)nc2c(F)c(-c3cccc4ccc(F)c(Cl)c34)ncc12 [Example 273]	0.016
C=CC(=O)N1CC[C@@H]2[C@H]1CN2c1ncnc2c(F)c(-c3cccc4sccc34)ncc12 [Example 276]	6.61
C=CC(=O)N1CC[C@@H]2[C@H]1CN2c1ncnc2c(F)c(-c3cccc(Cl)c3C3CC3)ncc12 [Example 277]	0.553
C=CC(=O)N1CC[C@@H]2[C@H]1CN2c1ncnc2c(F)c(-c3cccc4ccsc34)ncc12 [Example 278]	10
C=CC(=O)N1CC[C@@H]2[C@H]1[C@H](C)N2c1ncnc2c(F)c(-c3cccc4ccc(F)c(Cl)c34)ncc12 [Example 280]	0.09
C=CC(=O)N1CC[C@@H]2[C@H]1CN2c1nc(OC[C@@H]2CCCN2C)nc2c(F)c(-c3cc(O)cc4cccc(Cl)c34)ncc12 [Example 289, 1-((1R, 5R)-6-(7-(8-chloro-3-hydroxynaphthalen-1-yl)-8-fluoro-2-(((S)-1-methylpyrrolidin-2-yl)methoxy)pyrido[4,3-d]pyrimidin-4-yl)-2,6-diazabicyclo[3.2.0]heptan-2-yl)prop-2-en-1-one]	0.04
C#Cc1c(F)ccc2cccc(-c3ncc4c(N5C[C@@H]6[C@H]5CCN6C(=O)C=C)ncnc4c3F)c12 [Example 290, 1-((1R, 5R)-6-(7-(8-ethynyl-7-fluoronaphthalen-1-yl)-8-fluoropyrido[4,3-d]pyrimidin-4-yl)-2,6-diazabicyclo[3.2.0]heptan-2-yl)prop-2-en-1-one]	0.03
C#Cc1cccc2cc(O)cc(-c3ncc4c(N5C[C@@H]6[C@H]5CCN6C(=O)C=C)ncnc4c3F)c12 [Example 291, 1-((1R,5R)-6-(7-(8-ethynyl-3-hydroxynaphthalen-1-yl)-8-fluoropyrido[4,3-d]pyrimidin-4-yl)-2,6-diazabicyclo[3.2.0]heptan-2-yl)prop-2-en-1-one]	0.002
C#Cc1cccc2cc(O)cc(-c3ncc4c(N5C[C@@H]6[C@H]5CCN6C(=O)C=C)nc(OC[C@@H]5CCCN5C)nc4c3F)c12 [Example 292, 1-((1R,5R)-6-(7-(8-ethynyl-3-hydroxynaphthalen-1-yl)-8-fluoro-2-(((S)-1-methylpyrrolidin-2-yl)methoxy)pyrido[4,3-d]pyrimidin-4-yl)-2,6-diazabicyclo[3.2.0]heptan-2-yl)prop-2-en-1-one]	0.02
C#Cc1cccc2cncc(-c3ncc4c(N5C[C@@H]6[C@H]5CCN6C(=O)C=C)ncnc4c3F)c12 [Example 295]	0.418
C#Cc1cccc2cccc(-c3ncc4c(N5C[C@@H]6[C@H]5CCN6C(=O)C=C)nc(N5CC(N(C)C)C5)nc4c3F)c12 [Example 298]	0.024

More lines, in order of falling IC50, values ahead:

IC50 [µM]	SMILES
10	C=CC(=O)N1CCN(c2ncnc3c(F)c(-c4cc(Cl)cc5ccccc45)ncc23)CC1 [Example 255]
10	C=CC(=O)N1CCN(c2ncnc3c(F)c(-c4cc(C#N)cc5ccccc45)ncc23)CC1 [Example 256]
10	C=CC(=O)N1CCN(c2ncnc3c(F)c(-c4cccc5cc(Cl)ccc45)ncc23)CC1 [Example 257]
10	C/C=C/C(=O)N1CC[C@@H]2[C@H]1CN2c1ncnc2c(F)c(-c3cccc4ccc(F)c(Cl)c34)ncc12 [Example 260]
10	C=CC(=O)N1CC[C@@H]2[C@H]1CN2c1nc(N(C)CC)nc2c(F)c(-c3cccc4ccc(F)c(Cl)c34)ncc12 [Example 274]
10	C=CC(=O)N1CC[C@@H]2[C@H]1CN2c1nc(N(CC)CC)nc2c(F)c(-c3cccc4ccc(F)c(Cl)c34)ncc12 [Example 275]
3.78	C=CC(=O)N1CC[C@@H]2[C@H]1CN2c1nc(OC(C)C)nc2c(F)c(-c3cccc4ccc(F)c(Cl)c34)ncc12 [Example 270]
2.43	C=CC(=O)N1CC[C@@H]2[C@H]1CN2c1ncnc2c(F)c(-c3cccc4cccc(C)c34)ncc12 [Example 283]
2.34	C=CC(=O)N1CC[C@@H]2[C@H]1CN2c1ncnc2c(F)c(-c3c(O)ccc4ccccc34)ncc12 [Example 281]
2.15	C#Cc1cccc2cc(Cl)cc(-c3ncc4c(N5C[C@@H]6[C@H]5CCN6C(=O)C=C)ncnc4c3F)c12 [Example 294, 1-((1R,5R)-6-(7-(3-chloro-8-ethynylnaphthalen-1-yl)-8-fluoropyrido[4,3-d]pyrimidin-4-yl)-2,6-diazabicyclo[3.2.0]heptan-2-yl)prop-2-en-1-one]
1.33	C#Cc1c(F)ccc2cccc(-c3ncc4c(N5C[C@@H]6[C@H]5CCN6C(=O)C(=C)F)ncnc4c3F)c12 [Example 299, 1-((1R,5R)-6-(7-(8-ethynyl-7-fluoronaphthalen-1-yl)-8-fluoropyrido[4,3-d]pyrimidin-4-yl)-2,6-diazabicyclo[3.2.0]heptan-2-yl)-2-fluoroprop-2-en-1-one]
1.14	O=C(/C=C/C(F)(F)F)N1CC[C@@H]2[C@H]1CN2c1ncnc2c(F)c(-c3cccc4ccc(F)c(Cl)c34)ncc12 [Example 263]
1.13	C=CC(=O)N1CC[C@@H]2[C@H]1CN2c1nc(OCC)nc2c(F)c(-c3cccc4ccc(F)c(Cl)c34)ncc12 [Example 268]
1.07	C=CC(=O)N1CC[C@@H]2[C@H]1CN2c1nc(NC)nc2c(F)c(-c3cccc4ccc(F)c(Cl)c34)ncc12 [Example 271]
0.782	C=CC(=O)N1CC[C@@H]2[C@H]1CN2c1ncnc2c(F)c(-c3cccc4ccc(F)c(C)c34)ncc12 [Example 285]
0.557	C=CC(=O)N1CC[C@@H]2[C@H]1CN2c1ncnc2c(F)c(-c3cccc4cccc(Cl)c34)ncc12 [Example 284]
0.486	O=C(/C=C/C(F)F)N1CC[C@@H]2[C@H]1CN2c1ncnc2c(F)c(-c3cccc4ccc(F)c(Cl)c34)ncc12 [Example 261]
0.408	C=CC(=O)N1CC[C@@H]2[C@H]1[C@@H](C)N2c1ncnc2c(F)c(-c3cccc4ccc(F)c(Cl)c34)ncc12 [Example 279]
0.33	C=CC(=O)N1CC[C@@H]2[C@H]1CN2c1nc(OC)nc2c(F)c(-c3cccc4ccc(F)c(Cl)c34)ncc12 [Example 267]
0.287	C=CC(=O)N1CC[C@@H]2[C@H]1CN2c1nc(N)nc2c(F)c(-c3cccc4ccc(F)c(Cl)c34)ncc12 [Example 282]
0.235	C#Cc1c(F)ccc2cccc(-c3ncc4c(N5C[C@@H]6[C@H]5CCN6C(=O)/C=C/C(F)F)ncnc4c3F)c12 [Example 300, (E)-1-((1R,5R)-6-(7-(8-ethynyl-7-fluoronaphthalen-1-yl)-8-fluoropyrido[4,3-d]pyrimidin-4-yl)-2,6-diazabicyclo[3.2.0]heptan-2-yl)-4,4-difluorobut-2-en-1-one]
0.114	C=CC(=O)N1CC[C@@H]2[C@H]1CN2c1nc(OC[C@@H]2CC(F)(F)CN2C)nc2c(F)c(-c3cccc4ccc(F)c(Cl)c34)ncc12 [Example 262]
0.065	C#Cc1cccc2cc(O)cc(-c3ncc4c(N5C[C@@H]6[C@H]5CCN6C(=O)C=C)nc(OCC56CCCN5CCC6)nc4c3F)c12 [Example 293, 1-((1R, 5R)-6-(7-(8-ethynyl-3-hydroxynaphthalen-1-yl)-8-fluoro-2-((tetrahydro-1H-pyrrolizin-7a(5H)-yl)methoxy)pyrido[4,3-d]pyrimidin-4-yl)-2,6-diazabicyclo[3.2.0]heptan-2-yl)prop-2-en-1-one]
0.02	C=CC(=O)N1CC[C@@H]2[C@H]1CN2c1nc(OC[C@@H]2C[C@@H](F)CN2C)nc2c(F)c(-c3cccc4ccc(F)c(Cl)c34)ncc12 [Example 264]
0.015	C=CC(=O)N1CC[C@@H]2[C@H]1CN2c1ncnc2c(F)c(-c3cc(O)cc4cccc(Cl)c34)ncc12 [Example 288, 1-((1R,5R)-6-(7-(8-chloro-3-hydroxynaphthalen-1-yl)-8-fluoropyrido[4,3-d]pyrimidin-4-yl)-2,6-diazabicyclo[3.2.0]heptan-2-yl)prop-2-en-1-one]
0.004	C#Cc1c(F)ccc2cccc(-c3ncc4c(N5C[C@@H]6[C@H]5CCN6C(=O)C=C)nc(N5CC(N(C)C)C5)nc4c3F)c12 [Example 297]

Source: patent US11548888B2, “KRas G12C inhibitors” (Mirati Therapeutics, Inc., priority 2019, dated 2023)
